Measured values from US20220348966A1, “SYSTEM AND METHOD FOR INCREASED ALCOHOL TOLERANCE AND PRODUCTION IN YEAST” (The Trustees of Princeton University, priority 2019, published 2022).
Read-outs that look alike come from different tables or passages of the source.

What was measured:
[1] = test system: gln3Δ strain; type: cell-based, S. cerevisiae; settings: for tolerance compared to wild type strain: liquid medium
Source text: (§1) The six hypertolerant strains were examined in liquid medium containing heavy alcohols. In this example, the liquid medium contained 1.5% or 1.6% isobutanol, or 8% ethanol.
Tolerance of the gln3Δ strain to other alcohols was explored by measuring its growth in liquid medium containing methanol, 1-propanol, 1-butanol, 2-butanol, tert-butanol, 1-pentanol, 2-methyl-1-butanol, isopentanol, or 1-hexanol.

[2] = test system: yeast; settings: cited from earlier work
[3] = test system: gcn3Δ strain; type: cell-based, S. cerevisiae
Description: (§2) Utilizing the LC50 results, one can screen a gene deletion library (here, the BY4741 library [Giaever et al., 2002; Winzeler et al., 1999]) for changes in cell growth in liquid SC medium containing the heavy alcohol at an amount that is 0.1% or 0.2% (v/v) less than the LC50. Here, 1.4% (v/v) isobutanol was used. […] To quantify these phenotypes, a tolerance factor (TF) was defined as the ratio of the OD600 of cells grown with isobutanol in the medium after 24 h, divided by the OD600 of cells grown in the absence of isobutanol for the same amount of time. Thus, one can classify deletion strains as having increased sensitivity or tolerance to isobutanol based on the comparison of their TF values to that of the wild type strain in, e.g., 1.4% isobutanol measured during the screen. […] To assess the specificity of changes in tolerance to isobutanol, the growth of these selected strains in media containing ethanol can also be measured: 8% for sensitive strains or 9% for tolerant strains.
as §1

[4] = test system: ydr391cΔ strain; type: cell-based, S. cerevisiae; settings: FIG. 6
Source text: as §1

[5] = test system: gnp1Δ strain; type: cell-based, S. cerevisiae; settings: FIG. 6
Source text: as §1

[6] = test system: vps55Δ strain; type: cell-based, S. cerevisiae; settings: FIG. 6
Source text: as §1

[7] = test system: avt3Δ strain; type: cell-based, S. cerevisiae; settings: FIG. 6
Source text: as §1

[8] = test system: BY4741 wild type strain; settings: for cell growth (OD600): 24 h
Description: The Tolerance Factor (TF) is defined as the ratio of the OD600 of cells grown with the heavy alcohol in the medium after 24 h, divided by the OD600 of cells grown in the absence of the heavy alcohol for the same amount of time.
A first example is for the identification of the LC50 (lethal concentration for 50% of cells) of isobutanol for the BY4741 wild type strain of S. cerevisiae, the strain from which a gene deletion library was developed (Giaever et al., 2002; Winzeler et al., 1999). […] The cell growth of BY4741 in synthetic complete (SC) liquid medium containing concentrations of isobutanol ranging from 0.0% to 1.8% (v/v) was monitored by measuring the optical density at 600 nm (OD600) after 24-h cultivation.
as §2
For most screens and analyses of alcohol tolerance, wild type and deletion strains can be cultured in synthetic complete (SC) medium made inhouse (see Table 1) at 30° C., and 2% glucose. Strains overexpressing PPP genes can be cultured in SC medium lacking uracil (SC-Ura) made inhouse.

[9] = test system: zwf1Δ strain; type: cell-based, S. cerevisiae; settings: for sensitivity / cell growth in presence of alcohol compared to wild type: FIG. 5, various alcohols
Description: (§3) Growth of 19 hypersensitive strains was measured in liquid SC medium containing 0.6%, 1.0%, or 1.4% isobutanol, or 8% ethanol. These growth experiments were initiated at an OD600 of 0.1, unlike in previous screens, which started with much smaller inoculums (from a 96-pin replicator).
(§4) The sensitivity of gnd1Δ and zwf1Δ strains to other alcohols including methanol, 1-propanol, 1-butanol, 2-butanol, tert-butanol, 1-pentanol, 2-methyl-1-butanol, isopentanol, and 1-hexanol was explored.

[10] = test system: gnd1Δ strain; type: cell-based, S. cerevisiae; settings: for sensitivity / cell growth in presence of alcohol compared to wild type: FIG. 5, various alcohols
Description: as §3, §4

[11] = test system: nha1Δ strain; settings: 8% ethanol
Description: as §3, §4

[12] = test system: pep12Δ strain; assay: Growth of hypersensitive strains in liquid SC medium; type: cell-based, S. cerevisiae; settings: 0.6% isobutanol, initial OD600 0.1
[13] = test system: gcn4Δ strain; assay: Gene deletion library screen, tolerance factor in liquid SC medium; type: cell-based, S. cerevisiae; settings: 1.4% isobutanol
Source text: (§5) Here, 1.4% (v/v) isobutanol was used.

[14] = test system: trp2Δ strain; assay: Gene deletion library screen for isobutanol sensitivity; type: cell-based, S. cerevisiae; settings: second screen, 0.6% and 1.2% isobutanol
Source text: as §5
(§6) Out of the 164 sensitive strains, the 46 strains that continue to display increased sensitivity to isobutanol at lower concentrations (TF <0.5 in 0.6% isobutanol or TF <0.1 in 1.2% isobutanol) can be categorized as hypersensitive. These strains are highlighted in gray in FIGS. 2A-2C. Among the 36 strains with increased tolerance, 6 continue to display increased tolerance (TF >0.4) in 1.5% isobutanol, which we categorize as hypertolerant (FIG. 3).
(§7) Next, a Gene Ontology (GO) enrichment analysis of genes deleted in the 164 most sensitive and 36 most tolerant strains can be performed. […] In fact, five strains harboring deletions in the TRP gene family, encoding enzymes in tryptophan biosynthesis, show increased isobutanol sensitivity (with trp2Δ, trp3Δ, and trp5Δ being hypersensitive strains). One can examine the increased sensitivity to isobutanol caused by TRP1 deletion because it is an auxotrophic marker in commonly used strains, such as CEN.PK- and SEY6210-derived strains. […] Furthermore, after repairing the TRP1 allele in CEN.PK2-1C and SEY6210, wild-type (BY4741) levels of isobutanol tolerance are recovered.

[15] = test system: trp3Δ strain; assay: as above; type: cell-based, S. cerevisiae; settings: second screen, 0.6% and 1.2% isobutanol
Source text: as §5, §6, §7

[16] = test system: trp5Δ strain; assay: as above; type: cell-based, S. cerevisiae; settings: second screen, 0.6% and 1.2% isobutanol
Source text: as §5, §6, §7

[17] = test system: BY4741; assay: Serial dilutions spotted onto SC agar plates; type: cell-based, S. cerevisiae; settings: SC agar containing 2.4% isobutanol
Source text: To evaluate isobutanol growth inhibition on solid medium, serial dilutions of BY4741 were spotted onto SC agar plates containing 0.0% to 3.0% isobutanol. […] The higher LC50 determined from agar plates may be the result of higher cell tolerance to isobutanol in solid media; however, it could also reflect the difficulty in accurately preparing solid media with specific isobutanol concentrations due to isobutanol evaporation during the pouring of hot agar.

[18] = test system: gln3Δ strain; assay: Growth on SC agar medium; type: cell-based, S. cerevisiae; settings: 2.7% isobutanol
Source text: The gln3Δ strain can grow on SC agar medium containing 2.7% isobutanol.

[19] = test system: vps34Δ strain; assay: Growth of hypersensitive strains in liquid SC medium; type: cell-based, S. cerevisiae; settings: 0.6% isobutanol, initial OD600 0.1
[20] = 0.6% isobutanol, initial OD600 0.1

In the case of CCC(C)CO (stereo not shown) [2-methyl-1-butanol], the “OD600 relative to wild type strain” value ([1]; 0.55% 2-methyl-1-butanol, FIG. 7) is reported as 11.4 fold and the “tolerance compared to wild type strain” value ([1]; FIG. 7) is reported as “dramatically enhanced tolerance”.
In the case of CCO [Ethanol, ethanol], the ethanol concentration endured ([2]; S. cerevisiae) is given as ≤ 18 % (v/v), the “sensitivity compared to wild type strain” value ([3]; 8% ethanol, FIG. 6) is given as “at least as sensitive” and the “sensitivity compared to wild type strain” value ([4]; 8% ethanol) is given as “at least as sensitive”. For the same molecule, the “sensitivity compared to wild type strain” value ([5]; 8% ethanol) was “at least as sensitive”, the “sensitivity compared to wild type strain” value ([6]; 8% ethanol) was “at least as sensitive” and the “sensitivity compared to wild type strain” value ([7]; 8% ethanol) was “at least as sensitive”. The “Tolerance Factor” value ([8]; 8.0% ethanol) was 0.31, the “sensitivity compared to wild type strain” value ([9]; 8% ethanol) was “no more sensitive” and the “sensitivity / cell growth in presence of alcohol compared to wild type” value [9] was “neither strain demonstrates significantly increased sensitivity”. For the same molecule, the “sensitivity compared to wild type strain” value ([10]; 8% ethanol) was “no more sensitive”, the “sensitivity / cell growth in presence of alcohol compared to wild type” value [10] was “neither strain demonstrates significantly increased sensitivity” and the “sensitivity compared to wild type strain” value ([1]; 8% ethanol, FIG. 6) was “at least as sensitive”. For the same molecule, the “tolerance compared to wild type strain” value ([1]; FIG. 7) was “does not statistically increase tolerance” and the “sensitivity compared to wild type strain” value [11] was “no more sensitive”.
With CCCCO [Example 1-butanol, 1-butanol] the “tolerance compared to wild type strain” value ([1]; FIG. 7) was “does not statistically increase tolerance”.
With CCCCCCO [Example 1-hexanol, 1-hexanol] the “tolerance compared to wild type strain” value ([1]; FIG. 7) was “does not statistically increase tolerance”.
For CCCCCO [Example 1-pentanol, 1-pentanol], the “tolerance compared to wild type strain” value ([1]; FIG. 7) was “does not statistically increase tolerance”.
In the case of CCCO [Example 1-propanol, 1-propanol], the “sensitivity / cell growth in presence of alcohol compared to wild type” value [9] is reported as “neither strain demonstrates significantly increased sensitivity”, the “sensitivity / cell growth in presence of alcohol compared to wild type” value [10] is reported as “neither strain demonstrates significantly increased sensitivity” and the “tolerance compared to wild type strain” value ([1]; FIG. 7) is reported as “does not statistically increase tolerance”.
In the case of CCC(C)O (stereo not shown) [Example 2-butanol, 2-butanol], the “tolerance compared to wild type strain” value ([1]; FIG. 7) is reported as “smaller, but statistically significant, increase in tolerance”.
For CC(C)CO [Isobutanol, 2-methyl-1-propanol], the “toxicity for yeast relative to ethanol” value [2] is given as 10 times, the “Tolerance Factor” value [12] is given as “less than 0.3” and the “Tolerance Factor” value ([3]; 1.4% isobutanol) is given as 0.98. For the same molecule, the “growth compared to wild type” value ([3]; 1.5% isobutanol, FIG. 6) was “grow better than the wild type”, the “tolerance compared to wild type” value ([3]; 1.6% isobutanol, FIG. 6) was “enhanced tolerance” and the “growth compared to wild type” value ([4]; 1.5% isobutanol) was “grow better than the wild type”. For the same molecule, the “growth compared to wild type” value ([5]; 1.5% isobutanol) was “grow better than the wild type”, the “tolerance compared to wild type” value ([5]; 1.6% isobutanol) was “enhanced tolerance” and the “growth compared to wild type” value ([6]; 1.5% isobutanol) was “grow better than the wild type”. The “tolerance compared to wild type” value ([6]; 1.6% isobutanol) was “enhanced tolerance”, the “growth compared to wild type” value ([7]; 1.5% isobutanol) was “grow better than the wild type” and the “Tolerance Factor” value ([8]; 0.6% isobutanol) was 0.92. The “Tolerance Factor” value ([8]; 1.2% isobutanol) was 0.72, the “Tolerance Factor” value ([8]; 1.4% isobutanol) was 0.38 and the “Tolerance Factor” value ([8]; 1.5% isobutanol) was 0.19. For the same molecule, the “Tolerance Factor” value ([8]; 1.6% isobutanol) was 0.11, the “LC50 (lethal concentration for 50% of cells)” value ([8]; SC liquid medium, OD600 after 24-h cultivation) was ~1.5 % (v/v) and the “cell growth (OD600)” value ([8]; isobutanol 1.4% and 1.5%) was “moderate inhibition”. For the same molecule, the “cell growth (OD600)” value ([8]; isobutanol concentrations above 1.6%) was “significantly inhibited”, the “cell growth (OD600)” value ([8]; isobutanol concentrations below 1.3%) was “marginally affected” and the “Tolerance Factor” value [9, 20] was “less than 0.3”. The “Tolerance Factor” value [10, 20] was “less than 0.3”, the “Tolerance Factor” value [13] was 0.86 and the isobutanol sensitivity class [14] was “hypersensitive (TF <0.5 in 0.6% isobutanol or TF <0.1 in 1.2% isobutanol)”. For the same molecule, the isobutanol sensitivity class [15] was “hypersensitive (TF <0.5 in 0.6% isobutanol or TF <0.1 in 1.2% isobutanol)”, the isobutanol sensitivity class [16] was “hypersensitive (TF <0.5 in 0.6% isobutanol or TF <0.1 in 1.2% isobutanol)” and the “cell growth on agar plates” value [17] was “still observable but noticeably inhibited”. The “growth on SC agar medium” value [18] was “can grow”, the “growth compared to wild type” value ([1]; 1.5% isobutanol, FIG. 6) was “grow better than the wild type” and the “tolerance compared to wild type” value ([1]; 1.6% isobutanol, FIG. 6) was “enhanced tolerance”. The “increase in isobutanol tolerance compared to wild type” value ([1]; FIG. 7) was 4.04 fold, the “tolerance compared to wild type strain” value ([1]; FIG. 7) was “dramatically enhanced tolerance” and the “Tolerance Factor” value [19] was “less than 0.3”.
With CC(C)CCO [isopentanol, 3-methyl-1-butanol] the “tolerance compared to wild type strain” value ([1]; FIG. 7) was “dramatically enhanced tolerance”.
In the case of CO [methanol], the “sensitivity / cell growth in presence of alcohol compared to wild type” value [9] is reported as “neither strain demonstrates significantly increased sensitivity”, the “sensitivity / cell growth in presence of alcohol compared to wild type” value [10] is reported as “neither strain demonstrates significantly increased sensitivity” and the “tolerance compared to wild type strain” value ([1]; FIG. 7) is reported as “does not statistically increase tolerance”.
In the case of CC(C)(C)O [tert-butanol], the “tolerance compared to wild type strain” value ([1]; FIG. 7) is reported as “dramatically enhanced tolerance”.
